Assay results reported in patent US20250270190A1, “KIT INHIBITORS” (BLUEPRINT MEDICINES CORPORATION, priority 2022, published 2025).

molecular target: T1, c-kit autophosphorylation (Phospho c-Kit Tyr721) in HMC 1.1 (exon 11/13) cells, V654A (Homo sapiens, UniProt P10721, V560G/V654A); test: pKIT Meso Scale Discovery (MSD) assay, inhibition of autophosphorylation of KIT, HMC1.1_V654A; assay type: cell-based; conditions: Table 1, cell line not named for Table 1, b1056 names pKIT HMC1.1_V654A, read-out: Code (IC50 for inhibition of autophosphorylation of KIT, pKIT MSD assay)
T1 construct: endogenous in cells; host or cells: HMC 1.1 (exon 11/13) cells
Source text: In this MSD assay, specific capture antibodies for the analytes were coated in arrays in each well of a 96-well carbon electrode plate surface. The detection system used SULFO-TAG™ labels that emit light upon electrochemical stimulation initiated at the electrode surfaces of the […] and MULTI-SPOT® plates. The electrical stimulation was decoupled from the output signal, which was light and generated assays with minimal background. The goal of this assay was to assess the percent inhibition of autophosphorylation of c-kit in cells when treated with compounds of the disclosure in a dose-dependent manner.
HMC1.1 cells were maintained in IMDM media supplemented with 20% Calf Serum with Iron and 100 units/mL Penicillin-Streptomycin and grown in a 37° C. humidified tissue culture incubator. HMC1.1 cells were passaged by 1:5 dilution into fresh IMDM media supplemented with 20% Calf Serum with Iron and 100 units/mL Penicillin-Streptomycin every 5-7 days and were discarded after 20 passages.
Seeding was performed as follows: HMC cells were brought to 1×10^6 cells/mL in fresh phenol red free, serum-free, iron-free IDM media with Pen/Strep; cells were seeded/plated into respective U-bottom plate by dispensing 50 μL/well (50,000 cells) using the Multidrop, and covered and incubated cells at 37° C. in a humidified tissue culture incubator for 4 hours (starvation).
Dosing was performed as follows: The compound mother plate was prepared by adding 16 μL of compound to 24 μL of DMSO to row A, odd-numbered columns of screen matrix plate. […] Intermediate plates were prepared in V-bottom plates by dispensing 98 μL of phenol red free, serum free IMDM media with Pen/Strep into all wells. 2 μL DMSO or 2 μL 10 mM staurosporine was added to appropriate control wells. At the end of four hours, the Bravo protocol 10 cpds vertical dose MSD 2 U-plates 96-well was used to: add 2 μL from the compound plate to the intermediate plate and dose cells with 7 μL from the intermediate plate. The cells were covered and incubated at 37° C. in a humidified tissue culture incubator for 90 min. The complete lysis buffer was prepared with AlphaLISA 5× Lysis Buffer supplemented with 1× protease inhibitor cocktail and kept on ice. The cells were pelleted by centrifuging plate at 2500×g for 5 min, 4° C. and media removed. Complete lysis buffer was added (14 μL/well). The cells were covered and shaken at 4° C. on a plate shaker at 600 rpm for 30 min and kept cold
The MSD protocol was preformed as follows: Tris Wash Buffer (2L) was prepared by diluting 10× stock of Tris Wash Buffer to 1× in water. Blocking Solution was prepared by dissolving 600 mg Blocker A in 20 mL 1× Trish Wash Buffer (per plate). The Antibody Dilution Buffer was prepared by mixing 1 mL Blocking solution and 2 mL 1× Trish Wash Buffer (per plate) and kept on ice. Blocking Solution was added (150 μL/well) to each MSD plate using a multichannel repeater pipette. The plate was covered and incubated at room temperature on a plate shaker at 700 rpm for hr. The Bio Tek protocol RL-96w-wash-MSD_stacker_fromC was used to wash plates 3× with 150 μL/well. Cells were pelleted by centrifuging lysate plates at 2500×g for 5 mins. The Bravo protocol was used (transfer 25 ul supernatants from V-96 to assay plate) to transfer 25 μL sample lysate per well to each MSD plate. The plates were covered and incubated at room temperature on a plate shaker at 700 rpm for hr. The Bio Tek protocol RL-96w-wash-MSD_stacker_fromC was used to wash plates 3× with 150 μL/well. The Detection Antibody Solution was prepared by diluting the 60 μL of the 50× antibody stock in 2.94 mL of the Antibody Dilution Buffer (per plate) and kept on ice. 25 μL/well of detection antibody solution was added to each MSD plate. The plates were covered and incubated at room temperature on a plate shaker at 700 rpm for 1 hr. The Read Buffer was prepared by diluting 5 mL of 4× stock of Read Buffer to 1× in 15 mL water (per plate).

T1 sequence (P10721 26-976 V560G/V654A): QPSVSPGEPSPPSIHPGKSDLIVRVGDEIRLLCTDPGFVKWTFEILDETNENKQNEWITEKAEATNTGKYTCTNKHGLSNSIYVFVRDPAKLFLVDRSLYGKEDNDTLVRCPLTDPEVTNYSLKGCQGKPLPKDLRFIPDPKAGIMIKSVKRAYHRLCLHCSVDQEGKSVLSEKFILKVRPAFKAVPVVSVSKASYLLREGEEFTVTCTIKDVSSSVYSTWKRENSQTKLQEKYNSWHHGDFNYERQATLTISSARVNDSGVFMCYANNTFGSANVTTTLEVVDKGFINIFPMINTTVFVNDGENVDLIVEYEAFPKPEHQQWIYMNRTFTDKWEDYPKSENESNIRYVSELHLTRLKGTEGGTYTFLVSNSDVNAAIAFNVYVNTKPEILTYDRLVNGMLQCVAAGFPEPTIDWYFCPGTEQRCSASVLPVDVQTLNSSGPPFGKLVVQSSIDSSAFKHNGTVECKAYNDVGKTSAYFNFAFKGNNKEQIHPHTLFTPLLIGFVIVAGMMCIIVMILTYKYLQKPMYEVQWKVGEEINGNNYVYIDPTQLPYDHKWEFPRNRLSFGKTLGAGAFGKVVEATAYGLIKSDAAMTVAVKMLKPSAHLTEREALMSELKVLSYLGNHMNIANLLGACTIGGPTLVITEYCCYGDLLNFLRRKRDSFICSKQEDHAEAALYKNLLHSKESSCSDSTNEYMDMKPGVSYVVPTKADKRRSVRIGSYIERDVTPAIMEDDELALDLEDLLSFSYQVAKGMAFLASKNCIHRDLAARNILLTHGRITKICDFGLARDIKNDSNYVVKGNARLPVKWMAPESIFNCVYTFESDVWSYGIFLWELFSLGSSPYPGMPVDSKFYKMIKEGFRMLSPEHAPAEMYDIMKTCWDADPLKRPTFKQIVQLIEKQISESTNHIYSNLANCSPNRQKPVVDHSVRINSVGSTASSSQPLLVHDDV

Compound	IC50
COc1cc(Nc2cc(N)nc(C(F)F)n2)ncc1-c1cnn(C[C@@H]2CCN2C)c1 (single isomer, unassigned) [Compound 139, (S)-2-(difluoromethyl)-N4-(4-methoxy-5-(1-((1-methylazetidin-2-yl)methyl)-1H-pyrazol-4-yl)pyridin-2-yl)pyrimidine-4,6-diamine or (R)-2-(difluoromethyl)-N4-(4-methoxy-5-(1-((1-methylazetidin-2-yl)methyl)-1H-pyrazol-4-yl)pyridin-2-yl)pyrimidine-4,6-diamine]	< 10 nM
CC(C)Oc1cc(Nc2cc(N)nc([C@H](C)F)n2)ncc1-c1cnn([C@@H]2CCOC2)c1 (single isomer, unassigned) [Compound 156, 2-((S)-1-fluoroethyl)-N4-(4-isopropoxy-5-(1-((R)-tetrahydrofuran-3-yl)-1H-pyrazol-4-yl)pyridin-2-yl)pyrimidine-4,6-diamine or 2-((S)-1-fluoroethyl)-N4-(4-isopropoxy-5-(1-((S)-tetrahydrofuran-3-yl)-1H-pyrazol-4-yl)pyridin-2-yl)pyrimidine-4,6-diamine]	< 10 nM
CC(C)Oc1cc(Nc2cc(N)nc([C@H](C)F)n2)ncc1-c1cnn([C@H]2CCOC2)c1 (single isomer, unassigned) [Compound 157, 2-((S)-1-fluoroethyl)-N4-(4-isopropoxy-5-(1-((S)-tetrahydrofuran-3-yl)-1H-pyrazol-4-yl)pyridin-2-yl)pyrimidine-4,6-diamine or 2-((S)-1-fluoroethyl)-N4-(4-isopropoxy-5-(1-((R)-tetrahydrofuran-3-yl)-1H-pyrazol-4-yl)pyridin-2-yl)pyrimidine-4,6-diamine]	< 10 nM
Nc1cc(Nc2cc(OC3CC3)c(-c3cnn([C@H]4CCNC4)c3)cn2)nc(C(F)F)n1 (single isomer, unassigned) [Compound 159, (S)-N4-(4-cyclopropoxy-5-(1-(pyrrolidin-3-yl)-1H-pyrazol-4-yl)pyridin-2-yl)-2-(difluoromethyl)pyrimidine-4,6-diamine or (R)-N4-(4-cyclopropoxy-5-(1-(pyrrolidin-3-yl)-1H-pyrazol-4-yl)pyridin-2-yl)-2-(difluoromethyl)pyrimidine-4,6-diamine]	< 10 nM
Nc1cc(Nc2cc(OC3CC3)c(-c3cnn([C@@H]4CCNC4)c3)cn2)nc(C(F)F)n1 (single isomer, unassigned) [Compound 160, (R)-N4-(4-cyclopropoxy-5-(1-(pyrrolidin-3-yl)-1H-pyrazol-4-yl)pyridin-2-yl)-2-(difluoromethyl)pyrimidine-4,6-diamine or (S)-N4-(4-cyclopropoxy-5-(1-(pyrrolidin-3-yl)-1H-pyrazol-4-yl)pyridin-2-yl)-2-(difluoromethyl)pyrimidine-4,6-diamine]	< 10 nM
Nc1cc(Nc2cc(OC3CC3)c(-c3cnn(C[C@H]4CCN4)c3)cn2)nc(C(F)F)n1 (single isomer, unassigned) [Compound 161, (R)-N4-(5-(1-(azetidin-2-ylmethyl)-1H-pyrazol-4-yl)-4-cyclopropoxypyridin-2-yl)-2-(difluoromethyl)pyrimidine-4,6-diamine or (S)-N4-(5-(1-(azetidin-2-ylmethyl)-1H-pyrazol-4-yl)-4-cyclopropoxypyridin-2-yl)-2-(difluoromethyl)pyrimidine-4,6-diamine]	< 10 nM
Nc1cc(Nc2cc(OC3CC3)c(-c3cnn(C[C@@H]4CCN4)c3)cn2)nc(C(F)F)n1 (single isomer, unassigned) [Compound 162, (S)-N4-(5-(1-(azetidin-2-ylmethyl)-1H-pyrazol-4-yl)-4-cyclopropoxypyridin-2-yl)-2-(difluoromethyl)pyrimidine-4,6-diamine or (R)-N4-(5-(1-(azetidin-2-ylmethyl)-1H-pyrazol-4-yl)-4-cyclopropoxypyridin-2-yl)-2-(difluoromethyl)pyrimidine-4,6-diamine]	< 10 nM
